The target of test [1] is T1, cytoplasmic domain of the human CSF-1R (Homo sapiens, UniProt P07333).
T1 construct: Recombinant protein corresponding to the cytoplasmic domain of the human CSF-1R; purchased Invitrogen Corporation, Carlsbad, Calif; PV3249
T1 sequence (P07333 539-972 limits assumed): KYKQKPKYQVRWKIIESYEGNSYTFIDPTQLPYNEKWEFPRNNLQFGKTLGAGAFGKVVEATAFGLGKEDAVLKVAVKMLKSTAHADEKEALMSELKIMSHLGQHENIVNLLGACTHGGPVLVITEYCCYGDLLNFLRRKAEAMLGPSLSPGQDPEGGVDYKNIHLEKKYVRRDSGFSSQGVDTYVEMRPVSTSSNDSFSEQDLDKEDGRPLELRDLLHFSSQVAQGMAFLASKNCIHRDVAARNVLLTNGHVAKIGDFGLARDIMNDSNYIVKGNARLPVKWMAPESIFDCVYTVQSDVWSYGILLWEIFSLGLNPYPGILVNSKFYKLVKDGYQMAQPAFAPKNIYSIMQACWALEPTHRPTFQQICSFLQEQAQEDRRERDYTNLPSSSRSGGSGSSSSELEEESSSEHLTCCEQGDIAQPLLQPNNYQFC
The test can be described thus: In vitro kinase assay for CSF-1R (AlphaScreen). The format is biochemical. To be noted: tested at about 1 μM; read-out: CSF1RK 1 percent inhibition. How it is done:
The kinase activity of various protein tyrosine kinases can be measured by providing ATP and a suitable peptide or protein tyrosine-containing substrate, and assaying the transfer of phosphate moiety to the tyrosine residue. Recombinant protein corresponding to the cytoplasmic domain of the human CSF-1R was purchased from Invitrogen Corporation, Carlsbad, Calif. U.S.A. (#PV3249). For each assay, test compounds were serially diluted, starting at 25 μM with 3 fold dilutions, in DMSO in 384 well plates then mixed with an appropriate kinase reaction buffer consisting of 50 mM Hepes, 5 mM MgCl2, 10 mM MnCl2, 0.1% BSA, pH 7.5, 1.0 mM dithiothreitol, 0.01% Tween 80 plus 1 μM ATP. Kinase protein and an appropriate biotinylated peptide substrate at 50 nM were added to give a final volume of 20 μL, reactions were incubated for 2 hours at room temperature and stopped by the addition of 10 μL of 45 mM EDTA, 50 mM Hepes pH 7.5. Added to the stopped reaction mix was 30 μL of PT66 Alphascreen beads (Perkin Elmer, Boston, Mass., U.S.A.). The reaction was incubated overnight and read on the Envision (Perkin Elmer). Phosphorylated peptide product was measured with the AlphaScreen system (Perkin Elmer) using acceptor beads coated with anti-phosphotyrosine antibody PT66 and donor beads coated with streptavidin that emit a fluorescent signal at the 520-620 nm emission wave length if in close proximity. The concentration of each compound for 50% inhibition (IC50) was calculated by non-linear regression using XL Fit data analysis software.
CSF-1R kinase was assayed in 50 mM Hepes pH 7.0, 5 mM MgCl2, 10 mM MnCl2, 1 mM DTT, 1 mg/mL BSA, 1.0 μM ATP, and 0.05 μM biotin-GGGGRPRAATF-NH2 (SEQ ID NO:1) peptide substrate. CSF-1R kinase was added at final concentration of 4 nM.
For orientation: In Alpha technology, singlet oxygen from a donor bead excites a nearby acceptor bead.

For another test, the target named is T2, cKIT (Homo sapiens, UniProt P10721).
T2 construct: The kinase domain of cKIT was assayed in 50 mM Hepes; purchased Upstate 14-559
T2 sequence (P10721 589-937 limits assumed): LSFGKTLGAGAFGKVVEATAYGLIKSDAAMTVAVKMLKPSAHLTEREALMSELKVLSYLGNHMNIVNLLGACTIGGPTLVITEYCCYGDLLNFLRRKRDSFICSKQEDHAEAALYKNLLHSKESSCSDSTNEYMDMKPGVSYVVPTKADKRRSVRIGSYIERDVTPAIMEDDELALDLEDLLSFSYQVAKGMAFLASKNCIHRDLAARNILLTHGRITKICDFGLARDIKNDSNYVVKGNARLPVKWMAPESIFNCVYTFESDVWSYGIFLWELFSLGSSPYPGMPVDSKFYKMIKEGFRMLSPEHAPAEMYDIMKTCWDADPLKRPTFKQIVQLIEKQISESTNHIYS
In words: cKIT kinase in vitro biochemical assay (alphascreen). Particulars: tested at about 1 μM; read-out: CKIT percent inhibition. How it is done: (§1) The IC50 values for the inhibition of RTKs were determined in the alphascreen format measuring the inhibition by compound of phosphate transfer to a substrate by the respective enzyme. Briefly, the respective RTK domain purchased as human recombinant protein (cKIT Upstate #14-559, PDGFRb Invitrogen #P3082) were incubated with serial dilutions of compound in the presence of substrate and ATP concentrations within 3 times the Km of the enzyme.
(§2) The kinase domain of cKIT was assayed in 50 mM Hepes, pH=7.5, 5 mM MgCl2, 10 mM MnCl2, 1 mM DTT, 0.1% BSA with 0.06 uM biotinylated peptide substrate (GGLFDDPSYVNVQNL-NH2) and 15 uM ATP (ATP KM apparent=15 uM). The kinase domain of PDGFRβ was assayed in 50 mM Hepes, pH=7.5, 20 mM MgCl2, 1 mM DTT, 0.1% BSA with 0.1 uM biotinylated peptide substrate (GGLFDDPSYVNVQNL-NH2) and 10 uM ATP (ATP KM apparent=25 uM). Reactions were incubated at room temperature for 3 to 4 hr and stopped with buffer (20 mM EDTA, 0.01% Tween-20 for both PDGFRb and cKIT). Alphascreen PY20 beads were added to the stopped cKIT reactions and PY20 Ab/Protein A Alphascreen beads were added to the PDGFRβ stopped reactions. Both reactions were incubated overnight and read on the Alphascreen reader. The concentration of compound for 50% inhibition (IC50) was calculated employing non-linear regression using XL-Fit data analysis software. As a control compound, staurosporine is run in every assay and a Z′>0.5 is required to validate results.

Another test concerns the target T3, PDGFRb (Homo sapiens, UniProt P09619).
T3 construct: The kinase domain of PDGFRβ was assayed in 50 mM Hepes; purchased Invitrogen P3082
In words: PDGFRb kinase in vitro biochemical assay (alphascreen). Particulars: tested at about 1 μM; read-out: PDGF RK BETA percent inhibition. How it is done: as §1, §2

T3 sequence (P09619 600-962 limits assumed): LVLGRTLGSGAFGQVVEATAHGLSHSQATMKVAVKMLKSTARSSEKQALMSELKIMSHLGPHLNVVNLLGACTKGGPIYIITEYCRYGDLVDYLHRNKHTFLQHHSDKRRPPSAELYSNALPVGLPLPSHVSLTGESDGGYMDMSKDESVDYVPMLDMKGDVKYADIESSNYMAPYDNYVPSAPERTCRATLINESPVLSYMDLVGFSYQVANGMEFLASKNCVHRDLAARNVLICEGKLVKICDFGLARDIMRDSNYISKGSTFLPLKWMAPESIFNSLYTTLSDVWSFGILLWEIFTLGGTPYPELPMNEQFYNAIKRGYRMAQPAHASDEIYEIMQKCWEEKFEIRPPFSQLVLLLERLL

As to `CNC(=O)c1cncc(Oc2ccc3nc(N[C@@H]4CCCC[C@H]4O)sc3c2)n1` [Compound 52, 6-(2-((1R,2R)-2-hydroxycyclohexylamino)benzo[d]thiazol-6-yloxy)-N-methylpyrazine-2-carboxamide], the inhibition at 1 µM in test [1] was found to be 78%; on cKIT, 33%; at PDGFRb it was 12%.

`CNC(=O)c1ccc(Oc2ccc3nc(N[C@@H]4CCCC[C@H]4O)sc3c2)cn1` [Compound 54, 5-(2-((1R,2R)-2-hydroxycyclohexylamino)benzo[d]thiazol-6-yloxy)-N-methylpicolinamide]: the inhibition at 1 µM in test [1] came out at 87%; on cKIT, 56%; on PDGFRb it was 13%.

`O[C@@H]1CCCC[C@H]1Nc1nc2ccc(Oc3cncc(-c4cn[nH]c4)c3)cc2s1` [Compound 55, (1R,2R)-2-(6-(5-(1H-pyrazol-4-yl)pyridin-3-yloxy)benzo [d]thiazo-2-ylamino)cyclohexanol]: the values for the inhibition at 1 µM (in test [1]; at cKIT; on PDGFRb) were 100%, 84% and 19%, respectively.

On to `CCCn1cc(-c2cncc(Oc3ccc4nc(N[C@@H]5CCCC[C@H]5O)sc4c3)c2)cn1` [Compound 58, (1R,2R)-2-(6-(5-(1-propyl-1H-pyrazol-4-yl)pyridin-3-yloxy)benzo[d]thiazol-2-ylamino)cyclohexanol], for which the inhibition at 1 µM in test [1] was determined as 100%; at cKIT, 86%; at PDGFRb it was 7%.

For `O[C@@H]1CCCC[C@H]1Nc1nc2ccc(Oc3cncc(-c4cnn(CCN5CCOCC5)c4)c3)cc2s1` [Compound 59, (1R,2R)-2-(6-(5-(1-(2-morpholinoethyl)-1H-pyrazol-4-yl)pyridin-3-yloxy)benzo[d]thiazol-2-ylamino)cyclohexanol], the inhibition at 1 µM in test [1] was found to be 100%; at cKIT it was 78%; on PDGFRb, 16%.

Turning to `O[C@@H]1CCCC[C@H]1Nc1nc2ccc(Oc3cncc(-c4cnc5[nH]ccc5c4)c3)cc2s1` [Compound 61, (1R,2R)-2-(6-(5-(1H-pyrrolo[2,3-b]pyridin-5-yl)pyridin-3-yloxy)benzo[d]thiazol-2-ylamino) cyclohexanol], the inhibition at 1 µM in test [1] is 100%; at cKIT it was 84%; at PDGFRb it was 8%.

As to `CN1CCN(c2ccc(-c3cncc(Oc4ccc5nc(N[C@@H]6CCCC[C@H]6O)sc5c4)c3)cn2)CC1` [Compound 62, (1R,2R)-2-(6-(6′-(4-methylpiperazin-1-yl)-3,3′-bipyridin-5-yloxy)benzo[d]thiazol-2-ylamino) cyclohexanol], the inhibition at 1 µM was determined as 100% in test [1], 77% at cKIT and 26% at PDGFRb.

Turning to `O[C@@H]1CCCC[C@H]1Nc1nc2ccc(Oc3cncc(C4CC4)c3)cc2s1` [Compound 65, (1R,2R)-2-(6-(5-cyclopropylpyridin-3-yloxy)benzo[d]thiazol-2-ylamino) cyclohexanol], the figures for the inhibition at 1 µM (in test [1]; on cKIT; on PDGFRb) were 100%, 73% and 8%, respectively.

Consider `O[C@@H]1CCCC[C@H]1Nc1nc2ccc(Oc3cncc(-c4ccccn4)c3)cc2s1` [Compound 67], for which the results for the inhibition at 1 µM (in test [1]; on cKIT; at PDGFRb) were 100%, 94% and 36%, respectively.

As to `O[C@@H]1CCCC[C@H]1Nc1nc2ccc(Oc3cncc(-c4cscn4)c3)cc2s1` [Compound 69, (1R,2R)-2-(6-(5-(thiazol-4-yl)pyridin-3-yloxy)benzo[d]thiazol-2-ylamino) cyclohexanol], the values for the inhibition at 1 µM (in test [1]; on cKIT; at PDGFRb) were 100%, 97% and 31%, respectively.

Turning to `O=[N+]([O-])c1ccc(Oc2ccc3nc(NCC4CCCCC4)sc3c2)cn1` [Compound 71, N-(cyclohexylmethyl)-6-(6-nitropyridin-3-yloxy)benzo [d]thiazol-2-amine], the values for the inhibition at 1 µM (in test [1]; at cKIT; on PDGFRb) were 25%, 11% and 1%, respectively.

`O[C@@H]1CCCC[C@H]1Nc1nc2ccc(Oc3cncc(-c4ccc(N5CCOCC5)nc4)c3)cc2s1` [Compound 72, (1R,2R)-2-(6-(6′-morpholino-3,3′-bipyridin-5-yloxy)benzo[d]thiazol-2-ylamino)cyclohexanol]: the inhibition at 1 µM in test [1] was found to be 100%; at cKIT, 76%; at PDGFRb, 10%.

With `O[C@@H]1CCCC[C@H]1Nc1nc2ccc(Oc3cncc(-c4ccnc(N5CCOCC5)c4F)c3)cc2s1` [Compound 77], the results for the inhibition at 1 µM (in test [1]; at cKIT; at PDGFRb) were 100%, 83% and 6%, respectively.

For `O[C@@H]1CCCC[C@H]1Nc1nc2ccc(Oc3cncc(-c4ccn[nH]4)c3)cc2s1` [Compound 78, (1R,2R)-2-(6-(5-(1H-pyrazol-5-yl)pyridin-3-yloxy)benzo [d]thiazol-2-ylamino)cyclohexanol], the inhibition at 1 µM in test [1] worked out at 100%; on cKIT, 88%; on PDGFRb, 9%.

Take `O[C@@H]1CCCC[C@H]1Nc1nc2ccc(Oc3cncc(-c4cnn(CC(F)F)c4)c3)cc2s1` [Compound 82, (1R,2R)-2-(6-(5-(1-(2,2-difluoroethyl)-1H-pyrazol-4-yl)pyridin-3-yloxy)benzo[d]thiazol-2-ylamino)cyclohexanol]: the inhibition at 1 µM in test [1] stood at 100%; on cKIT, 82%; at PDGFRb it was 0%.

Take `O[C@@H]1CCCC[C@H]1Nc1nc2ccc(Oc3cncc(-c4ncco4)c3)cc2s1` [Compound 83, (1R,2R)-2-(6-(5-(oxazol-2-yl)pyridin-3-yloxy)benzo[d]thiazol-2-ylamino) cyclohexanol]: the values for the inhibition at 1 µM (in test [1]; at cKIT; on PDGFRb) were 100%, 86% and 98%, respectively.

Turning to `N#Cc1ccc(Oc2ccc3nc(NCC4CCCCC4)sc3c2)cn1` [Compound 86, 5-(2-(cyclohexylmethylamino)benzo [d]thiazol-6-yloxy) picolinonitrile], the inhibition at 1 µM in test [1] was 39%; on cKIT, 19%; at PDGFRb it was 1%.

`C[C@H](Nc1nc2ccc(Oc3ccc(C#N)nc3)cc2s1)C1CCCCC1` [Compound 87, (S)-5-(2-(1-cyclohexylethylamino)benzo[d]thiazol-6-yloxy)picolinonitrile]: the inhibition at 1 µM came to 32% in test [1], 16% at cKIT and 0% at PDGFRb.

In general, inhibition refers to the percentage by which the read-out fell short of the control.

Source of the values: patent publication US8293769B2, “CSF-1R inhibitors, compositions, and methods of use” (Novartis AG, priority 2008, dated 2012).
